Experiments:
Format in all cases: in vivo
[1] = system: velvetleaf (Abutilon theophrasti); experiment: Preemergence herbicidal activity, velvetleaf; conditions: Rate of Application 0.3 Kg/Ha, examined after 12-17 days
[2] = system: soybean (Glycine max var. Winchester); experiment: Preemergence herbicidal activity, soybean; conditions: Rate of Application 0.3 Kg/Ha, examined after 12-17 days
[3] = system: Johnsongrass (Sorghum halepense); experiment: Preemergence herbicidal activity, johnsongrass; conditions: Rate of Application 0.3 Kg/Ha, examined after 12-17 days
[4] = system: velvetleaf (Abutilon theophrasti); experiment: Postemergence herbicidal activity, velvetleaf; conditions: rate of application 0.3 Kg/Ha, rated after 12-17 days
[5] = system: green foxtail (Setaria viridis); experiment: Postemergence herbicidal activity, green foxtail; conditions: rate of application 0.3 Kg/Ha, rated after 12-17 days
[6] = system: common cocklebur (Xanthium strumarium L.); experiment: Postemergence herbicidal activity, cocklebur; conditions: rate of application 0.3 Kg/Ha, rated after 12-17 days
[7] = system: blackgrass (Aloepecurus myosuroides); experiment: Preemergence herbicidal activity, blackgrass; conditions: Rate of Application 0.3 Kg/Ha, examined after 12-17 days
Description: The benzofused heterocyclic compounds of this invention were tested for pre- and postemergence herbicidal activity using a variety of crops and weeds. The test plants included soybean (Glycine max var. Winchester), field corn (Zea mays var. Pioneer 3732), wheat (Triticum aestivum var. Lew), morningglory (Ipomea lacunosa or Ipomea hederacea), velvetleaf (Abutilon theophrasti), green foxtail (Setaria viridis), Johnsongrass (Sorghum halepense), blackgrass (Aloepecurus myosuroides), common chickweed (Stellaria media), and common cocklebur (Xanthium strumarium L.).
For preemergence testing, two disposable fiber flats (8 cm×15 cm×25 cm) for each rate of application of each candidate herbicide were filled to an approximate depth of 6.5 cm with steam-sterilized sandy loam soil. The soil was leveled and impressed with a template to provide five evenly spaced furrows 13 cm long and 0.5 cm deep in each flat. Seeds of soybean, wheat, corn, green foxtail, and johnsongrass were planted in the furrows of the first flat, and seeds of velvetleaf, morningglory, common chickweed, cocklebur, and blackgrass were planted in the furrows of the second flat. The five-row template was employed to firmly press the seeds into place. A topping soil of equal portions of sand and sandy loam soil was placed uniformly on top of each flat to a depth of approximately 0.5 cm. Flats for postemergence testing were prepared in the same manner except that they were planted 9-14 days prior to the preemergence flats and were placed in a greenhouse and watered, thus allowing the seeds to germinate and the foliage to develop.
In both pre- and postemergence tests, a stock solution of the candidate herbicide was prepared by dissolving 0.27 g of the compound in 20 mL of water/acetone (50/50) containing 0.5% v/v sorbitan monolaurate. For an application rate of 3000 g/ha of herbicide a 10 mL portion of the stock solution was diluted with water/acetone (50/50) to 45 mL.
The preemergence flats were initially subjected to a light water spray. The four flats were placed two by two along a conveyor belt (i.e., the two preemergence followed by the two postemergence flats). The conveyor belt fed under a spray nozzle mounted about ten inches above the post-emergent foliage. The preemergent flats were elevated on the belt so that the soil surface was at the same level below the spray nozzle as the foliage canopy of the postemergent plants. The spray of herbicidal solution was commenced and once stabilized, the flats were passed under the spray at a speed to receive a coverage equivalent of 100 L/ha. At this coverage the application rates are those shown in the above table for the individual herbicidal solutions. The preemergence flats were watered immediately thereafter, placed in the greenhouse and watered regularly at the soil surface. The postemergence flats were immediately placed in the green-house and not watered until 24 hours after treatment with the test solution. Thereafter they were regularly watered at ground level. After 12-17 days the plants were examined and the phytotoxicity data were recorded.
Phytotoxicity data were taken as percent control. Percent control was determined by a method similar to the 0 to 100 rating system disclosed in “Research Methods in Weed Science,” 2nd ed., B. Truelove, Ed.; Southern Weed Science Society; Auburn University, Auburn, Ala., 1977.

[8] = system: Johnsongrass (Sorghum halepense); experiment: Postemergence herbicidal activity, johnsongrass; conditions: rate of application 0.3 Kg/Ha, rated after 12-17 days
[9] = system: field corn (Zea mays var. Pioneer 3732); experiment: Postemergence herbicidal activity, corn; conditions: rate of application 0.3 Kg/Ha, rated after 12-17 days
[10] = system: wheat (Triticum aestivum var. Lew); experiment: Preemergence herbicidal activity, wheat; conditions: Rate of Application 0.3 Kg/Ha, examined after 12-17 days
[11] = system: common chickweed (Stellaria media); experiment: Preemergence herbicidal activity, chickweed; conditions: Rate of Application 0.3 Kg/Ha, examined after 12-17 days
[12] = system: green foxtail (Setaria viridis); experiment: Preemergence herbicidal activity, green foxtail; conditions: Rate of Application 0.3 Kg/Ha, examined after 12-17 days
[13] = system: field corn (Zea mays var. Pioneer 3732); experiment: Preemergence herbicidal activity, corn; conditions: Rate of Application 0.3 Kg/Ha, examined after 12-17 days
[14] = system: morningglory (Ipomea lacunosa or Ipomea hederacea); experiment: Postemergence herbicidal activity, morningglory; conditions: rate of application 0.3 Kg/Ha, rated after 12-17 days
[15] = system: common chickweed (Stellaria media); experiment: Postemergence herbicidal activity, chickweed; conditions: rate of application 0.3 Kg/Ha, rated after 12-17 days
[16] = system: wheat (Triticum aestivum var. Lew); experiment: Postemergence herbicidal activity, wheat; conditions: rate of application 0.3 Kg/Ha, rated after 12-17 days
[17] = system: morningglory (Ipomea lacunosa or Ipomea hederacea); experiment: Preemergence herbicidal activity, morningglory; conditions: Rate of Application 0.3 Kg/Ha, examined after 12-17 days
[18] = system: soybean (Glycine max var. Winchester); experiment: Postemergence herbicidal activity, soybean; conditions: rate of application 0.3 Kg/Ha, rated after 12-17 days
[19] = system: common cocklebur (Xanthium strumarium L.); experiment: Preemergence herbicidal activity, cocklebur; conditions: Rate of Application 0.3 Kg/Ha, examined after 12-17 days

SMILES | PREEMERGENCE HERBICIDAL ACTIVITY (% CONTROL) ABUTH [1] [%] | PREEMERGENCE HERBICIDAL ACTIVITY (% CONTROL) SOY [2] [%] | PREEMERGENCE HERBICIDAL ACTIVITY (% CONTROL) SORHA [3] [%] | Postemergence herbicidal activity (% control) ABUTH [4] [%] | Postemergence herbicidal activity (% control) SETVI [5] [%] | Postemergence herbicidal activity (% control) XANPE [6] [%] | PREEMERGENCE HERBICIDAL ACTIVITY (% CONTROL) ALOMY [7] [%] | Postemergence herbicidal activity (% control) SORHA [8] [%] | Postemergence herbicidal activity (% control) CRN [9] [%] | PREEMERGENCE HERBICIDAL ACTIVITY (% CONTROL) WHT [10] [%] | PREEMERGENCE HERBICIDAL ACTIVITY (% CONTROL) STEME [11] [%] | PREEMERGENCE HERBICIDAL ACTIVITY (% CONTROL) SETVI [12] [%] | PREEMERGENCE HERBICIDAL ACTIVITY (% CONTROL) CRN [13] [%] | Postemergence herbicidal activity (% control) IPOSS [14] [%] | Postemergence herbicidal activity (% control) STEME [15] [%] | Postemergence herbicidal activity (% control) WHT [16] [%] | PREEMERGENCE HERBICIDAL ACTIVITY (% CONTROL) IPOSS [17] [%] | Postemergence herbicidal activity (% control) SOY [18] [%] | PREEMERGENCE HERBICIDAL ACTIVITY (% CONTROL) XANPE [19] [%]
CC(=O)Nc1nc2c(-n3c(=O)cc(C(F)(F)F)n(C)c3=O)c(F)cc(Br)c2o1 [Compound 43] | 100 | 50 | 80 | 100 | 50 | 50 | 60 | 50 | 70 | 40 | 10 | 70 | 80 | 100 | 70 | 30 | 100 | 80 | –
COCc1nc2c(-n3c(=O)cc(C(F)(F)F)n(C)c3=O)c(F)cc(Br)c2o1 [Compound 96] | 100 | 100 | 95 | 100 | 100 | 100 | 90 | 100 | 90 | 90 | 100 | 100 | 95 | 100 | 100 | 90 | 100 | 100 | –
Cn1c(C(F)(F)F)cc(=O)n(-c2ccc(Cl)c3cc(C(=O)O)oc23)c1=O [Compound 266] | 40 | 50 | 30 | 50 | 40 | 10 | – | 40 | 60 | 30 | 0 | 30 | 60 | 60 | 10 | 40 | 70 | 60 | 0
Cn1c(C(F)(F)F)cc(=O)n(-c2ccc(Cl)c3cc(C(N)=O)oc23)c1=O [Compound 269] | 100 | 60 | 75 | 100 | 70 | – | 70 | 60 | 70 | 30 | 100 | 100 | 80 | 80 | 80 | 40 | 100 | 90 | 100
CN(C)C(=O)c1cc2c(Cl)ccc(-n3c(=O)cc(C(F)(F)F)n(C)c3=O)c2o1 [Compound 271] | 100 | 80 | 90 | 100 | 70 | – | 80 | 50 | 60 | 70 | 100 | 100 | 90 | 100 | 100 | 40 | 100 | 80 | 100

— patent publication US6352958B1, “Cycloimido-substituted benzofused heterocyclic herbicides” (FMC Corporation, priority 1997, dated 2002)
